This note sets out measurements from PubChem BioAssay AID1996.

Converted amounts (≈) assume the structure as drawn.

The conditions of this series: buffer; pH 7.4; 200.0 µM.
What is called solubility (kinetic) is the concentration staying in solution when a stock, usually in DMSO, is diluted into the medium. Regarding `COC(=O)c1ccc(S(=O)(=O)NC(C)(C)C)n1C`, the solubility (kinetic) came to 40.2 µg/mL (≈ 147 µM).

For `NC(=O)c1cc(S(=O)(=O)NCc2ccc(F)cc2)cs1`, the solubility (kinetic) came to 47 µg/mL (≈ 150 µM). To `CSc1ccc(CN2CCSCC2)cc1` belongs 17 µg/mL (≈ 71 µM); to `O=C(CCc1ccccc1)Nc1nccs1`, 17.9 µg/mL (≈ 77.1 µM); to `Cc1cccc(OCCn2ccnc2)c1`, 20.9 µg/mL (≈ 103 µM). To `CCOc1ccc2nc(NS(=O)(=O)c3cccs3)sc2c1` belongs 9.9 µg/mL (≈ 29.1 µM); to `Cc1cc(C(=O)NC2CCC(C)CC2)c(C)o1` (stereo not given), 12.6 µg/mL (≈ 53.5 µM); to `O=C(c1ccc(Cl)cc1)C1CCN(Cc2ccccc2)CC1`, above 47.1 µg/mL. `Cc1cc(C)cc(N2C(N)=NC(N)=NC2c2ccccc2F)c1.Cl` (stereo not given): the solubility (kinetic) was above 52.2 µg/mL. With `CCN(Cc1ccccc1)C(=O)c1oc2ccc(C)cc2c1C` the figure was 3 µg/mL (≈ 9.76 µM); with `COc1ccc(C2NC(=S)NC3=C2N2CCC3CC2)cc1` (stereo not given), above 45.2 µg/mL. As for `O=C(NCC(=O)N1CCCC1)c1ccccc1F`, the solubility (kinetic) was above 37.5 µg/mL.

The compound `CC(C)C12CN3CC(C(C)C)(CN(C1)C3(C)C)C2=O` came in with a solubility (kinetic) of 32 µg/mL (≈ 121 µM). As to `N#Cc1c(Nc2ccc(Cl)cc2)s[nH]c1=O`, the kinetic solubility is above 37.8 µg/mL. With `Nc1ncc2[nH]cnc2n1.O=[N+]([O-])O` the figure was above 29.7 µg/mL; with `Cc1nc2oc3ccc(F)cc3c(=O)c2cc1C(=O)O`, 40.8 µg/mL (≈ 149 µM).

Regarding `COc1ccc(NC(=O)c2cc(C)no2)cc1OC`, the kinetic solubility is above 39.3 µg/mL. Compound `CCn1ccc(C(=O)NCc2ccc3c(c2)OCO3)n1` came in with a solubility (kinetic) above 41 µg/mL.

`CC(=O)Nc1ccc(C(=O)COC(=O)Cc2ccsc2)c(F)c1` yielded a solubility (kinetic) above 50.3 µg/mL. In turn, `COc1ccc(-c2c(NCCc3ccccc3)c(=O)c2=O)cc1` displayed a kinetic solubility of 1 µg/mL (≈ 3.25 µM). As for `O=S(=O)(NC1CN2CCC1CC2)c1ccc(Cl)cc1` (stereo not given), the solubility (kinetic) stood at 42.6 µg/mL (≈ 142 µM). In turn, `Cc1ccc(-n2nc(C(=O)O)cc2-c2ccccc2Cl)cc1` gave a solubility (kinetic) above 46.9 µg/mL. Take `Cc1ccc(C(=O)c2nccn2C)cc1C`: the kinetic solubility is above 32.1 µg/mL. For the compound `COc1ccc(S(=O)(=O)N2CCN3CCCC3C2)cc1` (stereo not given), the kinetic solubility is 41.8 µg/mL (≈ 141 µM). For `NC(=O)C1CCN(C(=O)/C(=C/c2ccccc2)NC(=O)c2ccccc2)CC1`, the kinetic solubility turned out to be 53.7 µg/mL (≈ 142 µM). As for `O=C1/C(=C\c2ccsc2)N2CCC1CC2`, the solubility (kinetic) is 21.3 µg/mL (≈ 97.1 µM). `Cn1c(O)c(C=Nc2ccc(Br)cc2)c(=O)n(C)c1=O` came in with a kinetic solubility of 1.2 µg/mL (≈ 3.55 µM). Consider `CCN(C(=S)Nc1cccnc1)c1cccc2ccccc12`, for which the solubility (kinetic) was 39.9 µg/mL (≈ 130 µM). Compound `CN(C)S(=O)(=O)c1ccc(C(=O)OCC(=O)N2CC3(C)CC2CC(C)(C)C3)cc1` (stereo not given) returned a kinetic solubility above 63.4 µg/mL. With `COc1ccc(S(=O)(=O)N2CCCCCC2)cc1C(=O)OCC(=O)NC1CCS(=O)(=O)C1` (stereo not given) the figure was above 73.3 µg/mL; with `Cc1nn(C)c2ncc(C(N)=O)c(Oc3cccnc3)c12`, above 42.5 µg/mL; with `C=CCNC(=O)N1CCc2[nH]c3ccc(F)cc3c2C1`, above 41 µg/mL.

Compound `CCCCNc1nc2c(c(=O)n(Cc3ccccc3)c(=O)n2C)n1C` returned a solubility (kinetic) of 4.1 µg/mL (≈ 12 µM). As to `COc1ccc(OC)c(NC(=O)c2cccc(NC(=O)c3ccccc3)c2)c1`, the kinetic solubility is 9.8 µg/mL (≈ 26 µM).

Compound `CN(C)CCCN=C(NO)c1ccc(Cl)cc1Cl` had a solubility (kinetic) of 40.5 µg/mL (≈ 140 µM). The compound `Cc1ccnc(NC(=O)Cc2ccc(F)cc2)n1` showed a solubility (kinetic) above 36.8 µg/mL.

`O=C(NCc1cccnc1)Nc1ccccc1C(F)(F)F` registered a solubility (kinetic) above 44.3 µg/mL. In turn, `O=C(c1cc(O)c(O)c([N+](=O)[O-])c1)c1ccccc1F` yielded a solubility (kinetic) above 41.6 µg/mL.

`COc1ccc(S(=O)(=O)N2CCN(c3cnccn3)CC2)cc1OC` had a kinetic solubility above 54.7 µg/mL. To `CC1CCc2cc(F)ccc2N1C(=O)c1cccs1` (stereo not given) belongs 30.8 µg/mL (≈ 112 µM); to `O=C(COC(=O)/C=C/c1ccc(C(F)(F)F)cc1)NCCC1=CCCCC1`, 4.3 µg/mL (≈ 11.3 µM); to `Cc1cc(C(=O)NCCc2ccccc2)c2cc(F)ccc2n1`, 14.9 µg/mL (≈ 48.3 µM). For `CC(C)C(CCNCc1ccccn1)c1ccc(Cl)cc1` (stereo not given), the kinetic solubility was 24.8 µg/mL (≈ 81.9 µM). For `CCc1noc(C)c1C(=O)Nc1nc2c(C)cccc2s1`, the kinetic solubility worked out at 8.6 µg/mL (≈ 28.5 µM).

In turn, `CC(C)Sc1nc(SCC(=O)O)c2c3c(sc2n1)COC(C)(C)C3` registered a kinetic solubility of 56.9 µg/mL (≈ 148 µM).

Regarding `O=S(=O)(c1ccccc1)N1CCN2CCCC2C1` (stereo not given), the kinetic solubility was above 40 µg/mL.

In turn, `CCOP(=O)(OCC)C(Nc1ccc(F)cc1)c1ccccc1` (stereo not given) displayed a solubility (kinetic) above 50.6 µg/mL. `O=C(CN1C(=O)c2ccccc2C1=O)Nc1ccccc1N1CCOCC1`: the solubility (kinetic) is above 54.8 µg/mL. To `O=C(O)CCCCCNC(=O)OCC1c2ccccc2-c2ccccc21` belongs 3.4 µg/mL (≈ 9.62 µM); to `O=C1C2C3C=CC(C3)C2C(=O)N1c1ccc2ccccc2c1` (stereo not given), 12.3 µg/mL (≈ 42.5 µM).

Take `CC(C)CC(=O)N1CCN(C(=O)c2ccc(F)cc2)CC1`: the kinetic solubility is above 43.9 µg/mL. In turn, `Cc1ccsc1C(=O)OCC(=O)N1CC(C)CC(C)C1` (stereo not given) had a kinetic solubility above 44.3 µg/mL. `COC(=O)[C@H](Cc1ccccc1)NC(=O)NCc1ccccc1`: the solubility (kinetic) was 45.4 µg/mL (≈ 145 µM).

In turn, `Cc1cc(C)c(C)c(S(=O)(=O)N2CCC(C(=O)OCC(=O)NC3CCS(=O)(=O)C3)CC2)c1C` (stereo not given) displayed a solubility (kinetic) above 75.1 µg/mL.

In the case of `O=S(=O)(Nc1ccc(F)cc1)c1ccc(S(=O)(=O)N2CCOCC2)cc1`, the kinetic solubility was determined as 12.6 µg/mL (≈ 31.5 µM).

`Cc1nn(C)cc1S(=O)(=O)N1CCCCC1C` (stereo not given) registered a solubility (kinetic) above 38.6 µg/mL. With `CCOc1ncccc1C(=O)Nc1cccc(S(=O)(=O)N2CCOCC2)c1`, the solubility (kinetic) stood at 12 µg/mL (≈ 30.7 µM). As for `O=C(NCCCn1ccnc1)c1ccccc1Cl`, the kinetic solubility was above 39.6 µg/mL. As for `O=C1/C(=C/c2ccco2)SC(=S)N1CC1CCCO1` (stereo not given), the kinetic solubility was found to be 6.6 µg/mL (≈ 22.3 µM). Turning to `CCc1ccc(NC(=S)N2CCCC2)cc1`, the kinetic solubility was above 35.2 µg/mL. Consider `COc1ccccc1OCCOCCN1CCCC1`, for which the kinetic solubility turned out to be 38.2 µg/mL (≈ 144 µM). Take `CC1(C)CC(=O)C=C(NCc2ccc(C(=O)O)cc2)C1`: the solubility (kinetic) was 37.6 µg/mL (≈ 138 µM). `Cc1ccc(-c2cc(C(=O)NCC(c3ccccc3)N(C)C)c3ccccc3n2)o1` (stereo not given) returned a solubility (kinetic) of 31.1 µg/mL (≈ 77.8 µM).

In the case of `CN(C)CC(=O)N1CCc2ccccc2C1.O=C(O)C(=O)O`, the solubility (kinetic) is above 46.2 µg/mL. As for `COc1ccc(/C=N/NC(=O)c2ccncc2)c(C(=O)O)c1OC`, the kinetic solubility is above 49.4 µg/mL.

With `CN(C(=O)COC(=O)c1ccccc1C(=O)c1ccccc1)c1ccccc1`, the kinetic solubility turned out to be 42.7 µg/mL (≈ 114 µM). Compound `CCc1c(C)c2cc(Cl)c(O)c(CN3CCCC3)c2oc1=O` gave a kinetic solubility of 30.5 µg/mL (≈ 94.8 µM). With `O=C(O)C1CCN(C(=O)CSc2nnc(-c3ccccc3)o2)CC1` the figure was above 52.1 µg/mL. `COc1ccc(N=CC2=C(O)CC(C)(C)CC2=O)cc1OC` gave a kinetic solubility above 45.5 µg/mL. With `Cc1cccc(NC(=O)NC(=O)c2ccccc2)n1`, the kinetic solubility came to 0.8 µg/mL (≈ 3.13 µM). In the case of `CCN(C(=O)CSc1cccc[n+]1[O-])C1CCCCC1`, the kinetic solubility is above 44.2 µg/mL. Turning to `O=C1COc2ccc(C(=O)NC3CC3)cc2N1`, the solubility (kinetic) was above 34.8 µg/mL. To `OC(COc1ccc(Cl)cc1)CSc1ccccn1` (stereo not given) belongs 37.5 µg/mL (≈ 127 µM); to `CC(=O)Nc1ccc(SC(C)C(=O)NC2CCCC2)cc1` (stereo not given), above 46 µg/mL.

On to `O=S(=O)(c1ccc(=S)[nH]c1)N1CCCCCC1`, for which the kinetic solubility is 32 µg/mL (≈ 117 µM). With `Cc1ccc(C)c(S(=O)(=O)N2CCC3(CC2)OCCO3)c1` the figure was above 46.7 µg/mL; with `OC(CNCc1ccccc1Cl)COc1ccc(F)cc1` (stereo not given), above 46.5 µg/mL. With `NC(=O)c1cc(-c2csc(-c3cccnc3)n2)ccc1O` the figure was 5.2 µg/mL (≈ 17.5 µM); with `CCN(CC)S(=O)(=O)c1ccc(N2CCc3ccccc3C2)nc1`, 25.8 µg/mL (≈ 74.7 µM). In the case of `Cc1cc(C)cc(C(=O)NCCCN2CCOCC2)c1`, the solubility (kinetic) is above 41.5 µg/mL. With `CN(C(=O)c1ccc(COc2ccccc2Cl)o1)c1ccccc1` the figure was 8.8 µg/mL (≈ 25.7 µM); with `S=C1NCN(CCc2ccccc2)CN1Cc1ccccc1`, 0.4 µg/mL (≈ 1.28 µM). Compound `CC(NC(=O)Cc1ccsc1)c1ccc(Cl)cc1Cl` (stereo not given) had a kinetic solubility of 3.8 µg/mL (≈ 12.1 µM). With `Cn1c(Cl)c(/C=N/OC(=O)C(C)(C)C)c2ccccc21` the figure was 0.7 µg/mL (≈ 2.39 µM); with `COCc1ccc(C(=O)NC2CCSc3ccccc32)cc1` (stereo not given), 16.8 µg/mL (≈ 53.6 µM); with `CCCN1C(=O)N(c2cccc(C)c2)C(C)(O)CC1(C)C` (stereo not given), above 43.6 µg/mL.

Compound `COn1c(=O)c(-c2ccccc2)[n+]([O-])c2ccccc21` yielded a solubility (kinetic) above 40.2 µg/mL. The compound `O=C(/C=C/c1ccccc1)OCC(=O)N1CCCC1` displayed a solubility (kinetic) above 38.9 µg/mL. Take `O=C(COc1ccccc1)NS(=O)(=O)c1ccc(Cl)cc1`: the solubility (kinetic) is above 48.9 µg/mL. `Cc1ccc(NC(=O)Cc2cccs2)cc1Cl` returned a solubility (kinetic) of 6.1 µg/mL (≈ 23 µM). With `CC(CC(=O)NCc1ccc(Cl)cc1)c1ccccc1` (stereo not given) the figure was 39 µg/mL (≈ 136 µM). For the compound `COc1cc(-c2nnc(SCc3cc(=O)oc4cc(O)c(O)cc34)o2)cc(OC)c1OC`, the kinetic solubility is above 68.8 µg/mL. Take `COc1cc2c(cc1OC)CN(C(=O)Cn1ccccc1=O)CC2`: the solubility (kinetic) was above 49.3 µg/mL. As to `CCCNC(=O)c1nn2cc(Br)cnc2c1Cl`, the solubility (kinetic) is above 47.6 µg/mL. In turn, `Cc1ccc(NC(=O)N2CCN(C(=O)C3CCCO3)CC2)cc1` (stereo not given) registered a solubility (kinetic) above 47.6 µg/mL.

Consider `CCCCN(C)C(=O)C1CCN(Cc2cccnc2)CC1`, for which the kinetic solubility is above 43.4 µg/mL.

Turning to `Cc1cccnc1Nc1ncnc(N)c1[N+](=O)[O-]`, the kinetic solubility was 36.3 µg/mL (≈ 147 µM). With `O=C(Cc1ccc(F)cc1)N1CCN=C1SCc1cccc([N+](=O)[O-])c1` the figure was 9.4 µg/mL (≈ 25.2 µM).

Compound `OC(CNC1Cc2ccccc2C1)COc1ccc(F)cc1` (stereo not given) gave a solubility (kinetic) of 44.3 µg/mL (≈ 147 µM). With `CCc1noc(C)c1C(=O)Nc1cccc2ncccc12` the figure was above 42.2 µg/mL; with `COc1ccc(Cl)cc1NS(=O)(=O)c1cccc(C(=O)NC2CC2)c1`, above 57.1 µg/mL; with `COc1ccc(OCCN(C)CC(=O)Nc2ccccc2SC)cc1`, 21.2 µg/mL (≈ 58.8 µM). With `Cc1cc(NCC2CCCCC2)nc2ccccc12` the figure was 21.4 µg/mL (≈ 84.1 µM); with `O=C(Cc1ccc([N+](=O)[O-])cc1)c1c(O)cc(O)cc1O`, above 43.4 µg/mL; with `COCCCN(C(=S)Nc1ccc(OC)cc1)C(C)c1ccncc1` (stereo not given), above 53.9 µg/mL.
